Assay [1] concerns mitochondrial membrane potential. In kind it is cell-based, mouse. To be noted: for ΔΨm (composite Z-score): normalized score vs mock-treated (DMSO) wells.
The subject of a further assay is reactive oxygen species. In kind it is cell-based, mouse. The conditions noted are these: for ROS (composite Z-score): normalized score vs mock-treated (DMSO) wells.
The subject of another assay is OXPHOS gene expression. In kind it is cell-based, mouse. To be noted: for GE-HTS (composite Z-score): normalized score vs mock-treated (DMSO) wells.
In another assay the test system is nuOXPHOS transcripts. In kind it is cell-based, mouse. To be noted: for nucOX (composite Z-score): normalized score vs mock-treated (DMSO) wells.
For the next assay, the system named is mtOXPHOS transcripts. In kind it is cell-based, mouse. The conditions noted are these: for mitoOX (composite Z-score): normalized score vs mock-treated (DMSO) wells.
In another assay the test system is cytochrome c. In kind it is cell-based, mouse. The conditions noted are these: for cyt c (composite Z-score): normalized score vs mock-treated (DMSO) wells.
For a further assay, the system named is C2C12 myotubes. The conditions noted are these: for Viability (composite Z-score): normalized score vs mock-treated (DMSO) wells.
Assay [2] relates to cellular dehydrogenase activity. The conditions noted are these: for MTT (composite Z-score): normalized score vs mock-treated (DMSO) wells.
Setting [3] is: composite Z-score vs DMSO, Conc 20 μM.
The mark [4] stands for this setting: composite Z-score vs mock-treated (DMSO) wells, Conc 20 μM.
Where [5] appears, read: normalized composite Z-score vs mock-treated (DMSO) wells, Conc 20 μM.
Setting [6] is: composite Z-score vs DMSO wells, Conc 20 μM.

Here are results for ten molecules from patent US20090143279A1 (priority 2007, published 2009).

Read-outs that look alike come from different tables or passages of the source.

With `N[C@@H](C(=O)N[C@@H]1C(=O)N2C(C(=O)O)=C(Cl)CS[C@H]12)c1ccccc1` [cefaclor], the figures for the ΔΨm in assay [1] and in assay [1] (setting [3]) were −0.759 and −0.772, respectively. Also, the ROS worked out at 0.387 in the assay on reactive oxygen species and 0.297 with reactive oxygen species (setting [3]). For the same molecule, the GE-HTS in the assay with OXPHOS gene expression is given as 0.331; with OXPHOS gene expression (setting [3]), −0.547. Further, the results for the nucOX in the assay on nuOXPHOS transcripts and in the assay on nuOXPHOS transcripts (setting [3]) were 0.535 and −0.506, respectively. Besides, the mitoOX is recorded as −0.161 in the assay with mtOXPHOS transcripts and −0.435 in the assay with mtOXPHOS transcripts (setting [3]). Also, the values for the cyt c in the assay on cytochrome c and with cytochrome c (setting [3]) were −0.764 and 0.231, respectively. The Viability was 0.762 in the assay on C2C12 myotubes and −0.091 in the assay with C2C12 myotubes (setting [3]). The values for the MTT in assay [2] and in assay [2] (setting [3]) were −1.329 and −0.752, respectively.

With `CO/N=C(\C(=O)N[C@@H]1C(=O)N2C(C(=O)OCOC(=O)C(C)(C)C)=C(/C=C\c3scnc3C)CS[C@H]12)c1csc(N)n1` [cefditorin pivoxil], in assay [1] (setting [3]), the ΔΨm worked out at 0.245. Also, the ROS with reactive oxygen species (setting [3]) is 0.426. This molecule displayed a GE-HTS with OXPHOS gene expression (setting [3]) of 0.238. The nucOX with nuOXPHOS transcripts (setting [3]) is given as 0.100. The molecule further had a mitoOX in the assay on mtOXPHOS transcripts (setting [3]) of 0.440. In the assay on cytochrome c (setting [3]), this molecule showed a cyt c of 0.200. For the same molecule, the Viability in the assay with C2C12 myotubes (setting [3]) is recorded as −0.219. For the same molecule, the MTT in assay [2] (setting [3]) is recorded as −0.718.

For the molecule `CCN1CCN(C(=O)N[C@@H](C(=O)N[C@@H]2C(=O)N3C(C(=O)O)=C(CSc4nnnn4C)CS[C@H]23)c2ccc(O)cc2)C(=O)C1=O` [cefoperazone], the ΔΨm in assay [1] (setting [4]) was −0.908. Further, the ROS in the assay on reactive oxygen species (setting [4]) is on record as −0.295. The GE-HTS with OXPHOS gene expression (setting [4]) stood at 0.130. The nucOX in the assay on nuOXPHOS transcripts (setting [4]) was 0.013. In the assay on mtOXPHOS transcripts (setting [4]), this molecule returned a mitoOX of 0.367. Further, in the assay on cytochrome c (setting [4]), the cyt c was determined as 1.001. The molecule also had a Viability in the assay on C2C12 myotubes (setting [4]) of 0.097. This molecule had an MTT in assay [2] (setting [4]) of −0.793.

As for `CO/N=C(\C(=O)N[C@@H]1C(=O)N2C(C(=O)O)=C(COC(C)=O)CS[C@H]12)c1csc(N)n1` [cefotaxime], the ΔΨm in assay [1] (setting [3]) is recorded as −0.276. This molecule also returned an ROS in the assay with reactive oxygen species (setting [3]) of 1.000. In the assay on OXPHOS gene expression (setting [3]), the GE-HTS is given as −0.379. This molecule displayed a nucOX with nuOXPHOS transcripts (setting [3]) of −0.450. This molecule displayed a mitoOX with mtOXPHOS transcripts (setting [3]) of −0.214. In the assay on cytochrome c (setting [3]), this molecule showed a cyt c of 0.366. This molecule came in with a Viability with C2C12 myotubes (setting [3]) of −1.283. For the same molecule, the MTT in assay [2] (setting [3]) is on record as −2.276.

For `CO/N=C(\C(=O)N[C@@H]1C(=O)N2C(C(=O)O)=C(CSc3nc(=O)c(=O)[nH]n3C)CS[C@H]12)c1csc(N)n1` [ceftriaxone], the ΔΨm in assay [1] is on record as −0.461. Moreover, the ROS in the assay on reactive oxygen species is −0.002. Also, in the assay on OXPHOS gene expression, the GE-HTS is reported as −0.433. In the assay with nuOXPHOS transcripts, this molecule yielded a nucOX of −0.439. For the same molecule, in the assay with mtOXPHOS transcripts, the mitoOX is reported as −0.382. The molecule also returned a cyt c with cytochrome c of 0.481. This molecule also yielded a Viability with C2C12 myotubes of −0.792. The molecule further displayed an MTT in assay [2] of −1.040.

Molecule `CO/N=C(\C(=O)N[C@@H]1C(=O)N2C(C(=O)O)=C(COC(N)=O)CS[C@H]12)c1ccco1` [cefuroxime] returned a ΔΨm in assay [1] (setting [3]) of −0.358. For the same molecule, the ROS with reactive oxygen species (setting [3]) turned out to be 0.366. In addition, in the assay with OXPHOS gene expression (setting [3]), the GE-HTS was 0.816. This molecule also came in with a nucOX with nuOXPHOS transcripts (setting [3]) of 0.790. The same molecule displayed a mitoOX with mtOXPHOS transcripts (setting [3]) of 0.699. Moreover, the cyt c in the assay with cytochrome c (setting [3]) was −0.495. In the assay with C2C12 myotubes (setting [3]), this molecule had a Viability of −0.846. For the same molecule, in assay [2] (setting [3]), the MTT is −0.536.

The molecule `OC[C@H]1O[C@@H](O[C@H]2[C@H](O)[C@@H](O)[C@H](O)O[C@@H]2CO)[C@H](O)[C@@H](O)[C@@H]1O` [cellobiose (D[+])] yielded a ΔΨm in assay [1] (setting [5]) of −0.571. This molecule also had an ROS in the assay on reactive oxygen species (setting [5]) of −0.298. The GE-HTS in the assay on OXPHOS gene expression (setting [5]) is −0.127. Besides, in the assay with nuOXPHOS transcripts (setting [5]), the nucOX is given as 0.051. The mitoOX in the assay on mtOXPHOS transcripts (setting [5]) was −0.466. In the assay with cytochrome c (setting [5]), this molecule registered a cyt c of 0.380. Moreover, the Viability in the assay with C2C12 myotubes (setting [5]) is given as 0.390. This molecule also displayed an MTT in assay [2] (setting [5]) of 0.411.

In the case of `COc1ccc(-c2oc3cc(O[C@@H]4O[C@H](CO)[C@@H](O)[C@H](O)[C@H]4O)c(OC)c(O)c3c(=O)c2OC)cc1O` [centaurein], the “ΔΨm (composite Z-score)” value in assay [1] (Conc 20 μM) is recorded as −0.744. Besides, the “ROS (composite Z-score)” value with reactive oxygen species (Conc 20 μM) is −0.090. Further, in the assay on OXPHOS gene expression (Conc 20 μM), the “GE-HTS (composite Z-score)” value is recorded as 0.497. For the same molecule, the “nucOX (composite Z-score)” value in the assay with nuOXPHOS transcripts (Conc 20 μM) came to 0.388. Moreover, the “mitoOX (composite Z-score)” value in the assay with mtOXPHOS transcripts (Conc 20 μM) was 0.657. In the assay on cytochrome c (Conc 20 μM), the “cyt c (composite Z-score)” value is −0.039. For the same molecule, the “Viability (composite Z-score)” value with C2C12 myotubes (Conc 20 μM) is on record as −0.006. Further, in assay [2] (Conc 20 μM), the “MTT (composite Z-score)” value is listed as −1.640.

On to `CCOC(=O)CCCCCCCCCCCCC1C=CCC1` (stereo not shown) [chaulmoogric acid, ethyl ester], for which, in assay [1] (setting [6]), the ΔΨm was −0.536. This molecule also returned an ROS in the assay with reactive oxygen species (setting [6]) of 0.513. The molecule also yielded a GE-HTS in the assay on OXPHOS gene expression (setting [6]) of −0.730. This molecule also returned a nucOX in the assay on nuOXPHOS transcripts (setting [6]) of −0.876. Further, the mitoOX in the assay with mtOXPHOS transcripts (setting [6]) is −0.265. Also, the cyt c with cytochrome c (setting [6]) was 0.617. The same molecule showed a Viability in the assay with C2C12 myotubes (setting [6]) of −0.015. Besides, the MTT in assay [2] (setting [6]) is recorded as −0.612.

As to `O=C(CCCCCCCCCCCCC1CCCC1)Nc1ccc(S(=O)(=O)c2ccc(NC(=O)CCCCCCCCCCCCC3CCCC3)cc2)cc1` [chaulmosulfone], the “ΔΨm (composite Z-score)” value in assay [1] (Conc 20 μM) is −0.993. Moreover, the “ROS (composite Z-score)” value with reactive oxygen species (Conc 20 μM) was found to be 0.935. Also, in the assay on OXPHOS gene expression (Conc 20 μM), the “GE-HTS (composite Z-score)” value came to 0.157. In the assay with nuOXPHOS transcripts (Conc 20 μM), the “nucOX (composite Z-score)” value came to 0.083. For the same molecule, the “mitoOX (composite Z-score)” value in the assay on mtOXPHOS transcripts (Conc 20 μM) turned out to be 0.305. Besides, the “cyt c (composite Z-score)” value in the assay with cytochrome c (Conc 20 μM) is reported as −0.036. Moreover, in the assay on C2C12 myotubes (Conc 20 μM), the “Viability (composite Z-score)” value was −0.010. For the same molecule, in assay [2] (Conc 20 μM), the “MTT (composite Z-score)” value is −0.289.
